Counter-ions that a name gives are not always drawn.
Biological target: T1, Human D1 Receptor (Homo sapiens, UniProt P21728)
T1 construct: expressed in transfected cells; host or cells: LTK cell line over-expressing the D1 receptor
Test: Human D1 Receptor Binding Assay ([3H]-SCH23390 competition binding)
Conditions: over-expressing LTK human cell lines; 0.5 nM [3H]-SCH23390; 30 min at 37° C.; footnote a = geometric mean of ≧5 determinations, footnote b = single determination; read-out: Human D1 Receptor Binding, Ki (nM); Geometric mean of 2-4 determinations (unless otherwise indicated)
Protocol: The affinity of the compounds described herein was determined by competition binding assays similar to those described in Ryman-Rasmussen et al., “Differential activation of adenylate cyclase and receptor internalization by novel dopamine D1 receptor agonists”, Molecular Pharmacology 68(4):1039-1048 (2005).
D1 binding assays were performed using over-expressing LTK human cell lines. […] These ligand and tissue concentrations were used in time course studies to determine linearity and equilibrium conditions for binding. Binding was at equilibrium with the specified amount of tissue in 30 minutes at 37° C. […] The pellet was resuspended in assay buffer [50 mM Tris (pH 7.4@RT) containing 4 mM MgSO4 and 0.5 mM EDTA]. […] Non-specific binding was determined by radioligand binding in the presence of a saturating concentration of (+)-Butaclamol (10 μM), a D1 antagonist. After a 30 minute incubation period at 37° C., assay samples were rapidly filtered through Unifilter-96 GF/B PEI-coated filter plates and rinsed with 50 mM Tris buffer (pH 7.4 at 4° C.). […] The IC50 value (concentration at which 50% inhibition of specific binding occurs) was calculated by linear regression of the concentration-response data in Microsoft Excel. Ki values were calculated according to the Cheng-Prusoff equation: […]

T1 sequence (P21728 whole entry): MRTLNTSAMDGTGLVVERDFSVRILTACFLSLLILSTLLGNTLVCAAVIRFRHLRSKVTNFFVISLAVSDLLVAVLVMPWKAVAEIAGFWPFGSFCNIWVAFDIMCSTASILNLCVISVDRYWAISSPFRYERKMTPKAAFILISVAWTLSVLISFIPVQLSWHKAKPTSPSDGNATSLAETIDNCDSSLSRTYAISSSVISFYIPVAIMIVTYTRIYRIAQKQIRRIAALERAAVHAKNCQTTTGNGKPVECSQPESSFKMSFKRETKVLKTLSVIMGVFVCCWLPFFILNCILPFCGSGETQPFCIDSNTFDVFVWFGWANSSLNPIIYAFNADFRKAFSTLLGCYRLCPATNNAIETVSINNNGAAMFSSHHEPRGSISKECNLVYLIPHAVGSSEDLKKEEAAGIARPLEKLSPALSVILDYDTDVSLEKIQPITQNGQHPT

| Compound | Ki |
| --- | --- |
| Cc1cc(Oc2nccc3ncsc23)ccc1-c1c(C)ncc(=O)n1C (single isomer, unassigned) [Example 30, (+)-1,5-dimethyl-6-[2-methyl-4-([1,3]thiazolo[5,4-c]pyridin-4-yloxy)phenyl]pyrazin-2(1H)-one] | 116 nM |
| Cc1cc(Oc2nccc3ncsc23)ccc1-c1c(C)cnnc1C (single isomer, unassigned) [Example 65, (−)-4-[4-(3,5-dimethylpyridazin-4-yl)-3-methylphenoxy][1,3]thiazolo[5,4-c]pyridine] | 223 nM |
| Cc1cc(Oc2nccc3ncsc23)ccc1-c1c(C)ncc2nccn12 (single isomer, unassigned; ent-1) [Example 61, 4-[3-methyl-4-(6-methylimidazo[1,2-a]pyrazin-5-yl)phenoxy][1,3]thiazolo[5,4-c]pyridine, ENT-1] | 151 nM |
| Cc1cc(Oc2nccc3ncsc23)ccc1-c1c(C)ncc2nccn12 (single isomer, unassigned; ent-2) [Example 62, 4-[3-methyl-4-(6-methylimidazo[1,2-a]pyrazin-5-yl)phenoxy][1,3]thiazolo[5,4-c]pyridine, ENT-2] | 239 nM |
| Cc1cc(Oc2ncnc3ccsc23)ccc1-c1cn[nH]c(=O)c1C [Example 4, 4-methyl-5-[2-methyl-4-(thieno[3,2-d]pyrimidin-4-yloxy)phenyl]pyridazin-3(2H)-one] | 68.4 nM |
| Cc1ncnc(C)c1-c1ccc(Oc2nccc3ncsc23)cc1C#N [Example 7, 2-(4,6-dimethylpyrimidin-5-yl)-5-([1,3]thiazolo[5,4-c]pyridin-4-yloxy)benzonitrile] | 184 nM |
| Cc1cc(Oc2nccc3cc[nH]c23)ccc1-c1c(C)ncnc1C [Example 12, 7-[4-(4,6-dimethylpyrimidin-5-yl)-3-methylphenoxy]-1H-pyrrolo[2,3-c]pyridine] | 403 nM |
| Cc1cc(Oc2nccc3ncsc23)ccc1-c1c(C)ncc(=O)n1C [Example 16, 1,5-dimethyl-6-[2-methyl-4-([1,3]thiazolo[5,4-c]pyridin-4-yloxy)phenyl]pyrazin-2(1H)-one] | 82.8 nM |
| Cc1ncnc(C)c1-c1ccc(Oc2ncnc3ccsc23)c(F)c1 [Example 19, 4-[4-(4,6-dimethylpyrimidin-5-yl)-2-fluorophenoxy]thieno[3,2-d]pyrimidine] | 117 nM |
| Cc1ncnc(C)c1-c1ccc(Oc2ncnc3ccsc23)c(F)c1C [Example 20, 4-[4-(4,6-dimethylpyrimidin-5-yl)-2-fluoro-3-methylphenoxy]thieno[3,2-d]pyrimidine] | 121 nM |
| Cc1ncnc(C)c1-c1cc(F)c(Oc2ncnc3ccsc23)cc1F [Example 21, 4-[4-(4,6-dimethylpyrimidin-5-yl)-2,5-difluorophenoxy]thieno[3,2-d]pyrimidine] | 62.4 nM |
| Cc1ncnc(C)c1-c1ccc(Oc2ncnc3ccsc23)cc1 [Example 22, 4-[4-(4,6-dimethylpyrimidin-5-yl)phenoxy]thieno[3,2-d]pyrimidine] | 146 nM |
| COc1cc(Oc2ncnc3ccsc23)ccc1-c1c(C)ncnc1C [Example 23, 4-[4-(4,6-dimethylpyrimidin-5-yl)-3-methoxyphenoxy]thieno[3,2-d]pyrimidine] | 178 nM |
| Cc1ncnc(C)c1-c1ccc(Oc2ncnc3ccsc23)cc1F [Example 24, 4-[4-(4,6-dimethylpyrimidin-5-yl)-3-fluorophenoxy]thieno[3,2-d]pyrimidine, trifluoroacetate salt] | 531 nM |
| Cc1cc(Oc2nccc3cn[nH]c23)ccc1-c1c(C)n[nH]c(=O)c1C [Example 25, 4,6-dimethyl-5-[2-methyl-4-(1H-pyrazolo[3,4-c]pyridin-7-yloxy)phenyl]pyridazin-3(2H)-one] | 120 nM |
| Cc1cc(Oc2nccc3ncsc23)ccc1-c1cn[nH]c(=O)c1C [Example 27, 4-methyl-5-[2-methyl-4-([1,3]thiazolo[5,4-c]pyridin-4-yloxy)phenyl]pyridazin-3(2H)-one] | 186 nM |
| Cc1ncnc(C)c1-c1ccc(Oc2nccc3ncsc23)cc1Cl [Example 31, 4-[3-chloro-4-(4,6-dimethylpyrimidin-5-yl)phenoxy][1,3]thiazolo[5,4-c]pyridine] | 71.9 nM |

Compounds with a lower Ki, results first:

| Ki | Compound |
| --- | --- |
| 4.1 nM | Cc1cc(Oc2ncnc3ccsc23)ccc1-c1c(C)c(=O)[nH]c(=O)n1C (single isomer, unassigned) [Example 1, (+)-1,5-dimethyl-6-[2-methyl-4-(thieno[3,2-d]pyrimidin-4-yloxy)phenyl]pyrimidine-2,4(1H,3H)-dione] |
| 1.8 nM | Cc1cc(Oc2ncnc3ccsc23)ccc1-c1c(C)c(=O)[nH]c(=O)n1C (single isomer, unassigned) [Example 2, (−)-1,5-dimethyl-6-[2-methyl-4-(thieno[3,2-d]pyrimidin-4-yloxy)phenyl]pyrimidine-2,4(1H,3H)-dione] |
| 40.6 nM | Cc1cc(Oc2nccc3ncsc23)ccc1-c1c(C)ncc(=O)n1C (single isomer, unassigned) [Example 29, (−)-1,5-dimethyl-6-[2-methyl-4-([1,3]thiazolo[5,4-c]pyridin-4-yloxy)phenyl]pyrazin-2(1H)-one] |
| 32.3 nM | Cc1cc(Oc2nccc3ncsc23)ccc1-c1c(C)cnnc1C (single isomer, unassigned) [Example 64, (+)-4-[4-(3,5-dimethylpyridazin-4-yl)-3-methylphenoxy][1,3]thiazolo[5,4-c]pyridine] |
| 14.3 nM | Cc1cc(Oc2nccc3ccsc23)ccc1-c1c(C)ncnc1C#N (single isomer, unassigned; ent-1) [Example 45, 6-methyl-5-[2-methyl-4-(thieno[2,3-c]pyridin-7-yloxy)phenyl]pyrimidine-4-carbonitrile, ENT-1] |
| 15.1 nM | Cc1cc(Oc2nccc3ccsc23)ccc1-c1c(C)ncnc1C#N (single isomer, unassigned; ent-2) [Example 46, 6-methyl-5-[2-methyl-4-(thieno[2,3-c]pyridin-7-yloxy)phenyl]pyrimidine-4-carbonitrile, ENT-2] |
| 10.9 nM | Cc1cc(Oc2nccc3cnsc23)ccc1-c1c(C)n[nH]c(=O)c1C [Example 3, 4,6-dimethyl-5-[2-methyl-4-([1,2]thiazolo[5,4-c]pyridin-7-yloxy)phenyl]pyridazin-3(2H)-one] |
| 1.6 nM | Cc1cc(Oc2nccc3ccsc23)ccc1-c1c(C)ncc(=O)n1C [Example 5, 1,5-dimethyl-6-[2-methyl-4-(thieno[2,3-c]pyridin-7-yloxy)phenyl]pyrazin-2(1H)-one] |
| 5.8 nM | Cc1cc(Oc2nccc3ccsc23)ccc1-c1c(C)ncnc1C [Example 6, 7-[4-(4,6-dimethylpyrimidin-5-yl)-3-methylphenoxy]thieno[2,3-c]pyridine] |
| 13.1 nM | Cc1cc(Oc2nccc3ccsc23)ccc1-n1c(C)nc2cnccc21 [Example 8, 2-methyl-1-[2-methyl-4-(thieno[2,3-c]pyridin-7-yloxy)phenyl]-1H-imidazo[4,5-c]pyridine] |
| 57.2 nM | Cc1cc(Oc2nccc3ccoc23)ccc1-c1c(C)ncc2nccn12 [Example 9, 5-[4-(furo[2,3-c]pyridin-7-yloxy)-2-methylphenyl]-6-methylimidazo[1,2-a]pyrazine] |
| 44.9 nM | COc1cc(Oc2nccc3ccsc23)ccc1-c1nccnc1C [Example 10, 7-[3-methoxy-4-(3-methylpyrazin-2-yl)phenoxy]thieno[2,3-c]pyridine] |
| 57.8 nM | Cc1cc(Oc2nccc3ccoc23)ccc1-c1c(C)ncnc1C [Example 11, 7-[4-(4,6-dimethylpyrimidin-5-yl)-3-methylphenoxy]furo[2,3-c]pyridine] |
| 34.5 nM | Cc1ncnc(C#N)c1-c1ccc(Oc2nccc3ccsc23)cc1F [Example 13, 5-[2-fluoro-4-(thieno[2,3-c]pyridin-7-yloxy)phenyl]-6-methylpyrimidine-4-carbonitrile] |
| 3.3 nM | Cc1cc(Oc2nccc3ccsc23)ccc1-c1c(C)cnnc1C [Example 14, 7-[4-(3,5-dimethylpyridazin-4-yl)-3-methylphenoxy]thieno[2,3-c]pyridine] |
| 34.5 nM | Cc1cc(Oc2ncnc3ccsc23)ccc1-c1c(C)ncc(=O)n1C [Example 15, 1,5-dimethyl-6-[2-methyl-4-(thieno[3,2-d]pyrimidin-4-yloxy)phenyl]pyrazin-2(1H)-one] |
| 25.4 nM | Cc1ncnc(C)c1-c1ccc(Oc2ncnc3ccsc23)cc1Cl [Example 17, 4-[3-chloro-4-(4,6-dimethylpyrimidin-5-yl)phenoxy]thieno[3,2-d]pyrimidine] |
| 34.5 nM | Cc1cc(Oc2ncnc3ccsc23)c(F)cc1-c1c(C)ncnc1C [Example 18, 4-[4-(4,6-dimethylpyrimidin-5-yl)-2-fluoro-5-methylphenoxy]thieno[3,2-d]pyrimidine] |
| 12.2 nM | Cc1cc(Oc2nccc3ncsc23)ccc1-c1c(C)n[nH]c(=O)c1C [Example 26, 4,6-dimethyl-5-[2-methyl-4-([1,3]thiazolo[5,4-c]pyridin-4-yloxy)phenyl]pyridazin-3(2H)-one] |
| 25 nM | Cc1n[nH]c(=O)c(C)c1-c1ccc(Oc2nccc3ncsc23)cc1 [Example 28, 4,6-dimethyl-5-[4-([1,3]thiazolo[5,4-c]pyridin-4-yloxy)phenyl]pyridazin-3(2H)-one] |
